From ChEMBL document CHEMBL1144730, “Novel antibacterial azetidine lincosamides” (Bioorg Med Chem Lett, 2008) come the findings set out here.

SMILES strings stand for the structures. pIC50: −log10 of the molar value. In brackets after ≈: the same amount, converted by molar mass.

One may read the MIC as the lowest concentration found to suppress growth. A higher MIC goes with a less susceptible organism. Broadly, the ED50 is the dose at which the effect has come halfway, by size or by number of responders. A low value points to greater potency. One may read the pIC50 as the IC50 on a negative log10 scale, so that one unit is a factor of ten.

Common to all, as to format: functional
For one assay, the system named is Enterococcus faecium. Nature of the assay: Antibacterial activity against Enterococcus faecium by broth microdilution method.
Assay [1] has as its system Staphylococcus aureus. Nature of the assay: Antibacterial activity against macrolide, licosamide and streptogramin resistant Staphylococcus aureus by broth microdilution method. Background: Dilution methods test growth across graded concentrations, often in twofold steps.
A further assay has as its system Bacteroides fragilis. Nature of the assay: Antibacterial activity against Bacteroides fragilis by broth microdilution method.
For another assay, the system named is Streptococcus pneumoniae. Nature of the assay: Antibacterial activity against Streptococcus pneumoniae by broth microdilution method.
The subject of a further assay is Enterococcus faecalis. Nature of the assay: Antibacterial activity against Enterococcus faecalis by broth microdilution method.
Assay [2] has as its system Staphylococcus aureus. Nature of the assay: Antibacterial activity against Staphylococcus aureus by broth microdilution method.
Assay [3] deals with Staphylococcus aureus. Nature of the assay: Antibacterial activity against Staphylococcus aureus Smith infected iv dosed mouse septicemia model.
Another assay deals with Escherichia coli. Nature of the assay: Inhibition of protein synthesis in Escherichia coli by transcription/translation inhibition assay.
For assay [4], the system named is Staphylococcus aureus. Nature of the assay: Antibacterial activity against Staphylococcus aureus Smith infected po dosed mouse septicemia model.

As for `CS[C@H]1O[C@H]([C@H](NC(=O)[C@H]2NC[C@@H]2CCC(F)F)[C@H](C)Cl)[C@H](O)[C@H](O)[C@H]1O`, the MIC with Enterococcus faecium is 0.5 µg/mL (≈ 1.15 µM); in the assay with Staphylococcus aureus [1], greater than 4 µg/mL; against Bacteroides fragilis, 1 µg/mL (≈ 2.31 µM); in the assay on Streptococcus pneumoniae, 0.125 µg/mL (≈ 0.289 µM); in the assay with Enterococcus faecalis it was 2 µg/mL (≈ 4.62 µM); with Staphylococcus aureus [2], 1 µg/mL (≈ 2.31 µM).
As for `CS[C@H]1O[C@H]([C@H](NC(=O)[C@H]2NC[C@@H]2CCC2CCC2)[C@H](C)Cl)[C@H](O)[C@H](O)[C@H]1O`, the MIC in the assay with Enterococcus faecium is 0.25 µg/mL (≈ 0.572 µM); with Staphylococcus aureus [1], greater than 4 µg/mL; against Bacteroides fragilis it was 0.25 µg/mL (≈ 0.572 µM); in the assay with Streptococcus pneumoniae, 0.125 µg/mL (≈ 0.286 µM); with Enterococcus faecalis, 0.25 µg/mL (≈ 0.572 µM); in the assay on Staphylococcus aureus [2] it was 0.25 µg/mL (≈ 0.572 µM).
For the molecule `CS[C@H]1O[C@H]([C@H](NC(=O)[C@H]2NC[C@@H]2CCC2CC2)[C@H](C)Cl)[C@H](O)[C@H](O)[C@H]1O`, the MIC against Enterococcus faecium is 0.125 µg/mL (≈ 0.296 µM); with Staphylococcus aureus [1], greater than 4 µg/mL; in the assay on Bacteroides fragilis, 0.25 µg/mL (≈ 0.591 µM); against Streptococcus pneumoniae it was 0.125 µg/mL (≈ 0.296 µM); against Enterococcus faecalis, 0.25 µg/mL (≈ 0.591 µM); against Staphylococcus aureus [2], 0.25 µg/mL (≈ 0.591 µM). This molecule also had an ED50 in the assay on Staphylococcus aureus [3] of 3 mg/kg. In the assay with Escherichia coli, this molecule had a pIC50 of 5.11.
Turning to `CCCC[C@H]1CN(CCO)[C@@H]1C(=O)N[C@@H]([C@H]1O[C@H](SC)[C@H](O)[C@@H](O)[C@H]1O)[C@H](C)Cl`, the MIC was 0.25 µg/mL (≈ 0.549 µM) against Enterococcus faecium; greater than 8 µg/mL against Staphylococcus aureus [1]; 0.5 µg/mL (≈ 1.1 µM) with Bacteroides fragilis; 0.125 µg/mL (≈ 0.275 µM) against Streptococcus pneumoniae; 0.5 µg/mL (≈ 1.1 µM) against Enterococcus faecalis; 0.5 µg/mL (≈ 1.1 µM) against Staphylococcus aureus [2].
`CS[C@H]1O[C@H]([C@H](NC(=O)[C@H]2NC[C@@H]2CCCC2CC2)[C@H](C)Cl)[C@H](O)[C@H](O)[C@H]1O`: the MIC against Enterococcus faecium is 0.125 µg/mL (≈ 0.286 µM); in the assay on Staphylococcus aureus [1], greater than 4 µg/mL; against Bacteroides fragilis, 0.25 µg/mL (≈ 0.572 µM); against Streptococcus pneumoniae, 0.06 µg/mL (≈ 0.137 µM); with Enterococcus faecalis it was 0.25 µg/mL (≈ 0.572 µM); in the assay on Staphylococcus aureus [2], 0.125 µg/mL (≈ 0.286 µM). For the same molecule, the ED50 in the assay with Staphylococcus aureus [3] is 3.1 mg/kg. In the assay on Escherichia coli, this molecule had a pIC50 of 5.56.
As for `CCCC[C@H]1CN(C)[C@@H]1C(=O)N[C@@H]([C@H]1O[C@H](SC)[C@H](O)[C@@H](O)[C@H]1O)[C@H](C)Cl`, the MIC was 1 µg/mL (≈ 2.35 µM) against Enterococcus faecium; greater than 4 µg/mL in the assay with Staphylococcus aureus [1]; 0.125 µg/mL (≈ 0.294 µM) in the assay with Bacteroides fragilis; 0.5 µg/mL (≈ 1.18 µM) with Streptococcus pneumoniae; 2 µg/mL (≈ 4.71 µM) with Enterococcus faecalis; 1 µg/mL (≈ 2.35 µM) against Staphylococcus aureus [2].
`CCC[C@H]1CN[C@@H]1C(=O)N[C@@H]([C@H]1O[C@H](SC)[C@H](O)[C@@H](O)[C@H]1O)[C@H](C)Cl`: the MIC in the assay on Enterococcus faecium is 0.5 µg/mL (≈ 1.26 µM); with Staphylococcus aureus [1], greater than 8 µg/mL; in the assay with Bacteroides fragilis, 0.5 µg/mL (≈ 1.26 µM); against Streptococcus pneumoniae, 0.125 µg/mL (≈ 0.315 µM); in the assay on Enterococcus faecalis it was 0.5 µg/mL (≈ 1.26 µM); against Staphylococcus aureus [2], 0.5 µg/mL (≈ 1.26 µM). In the assay on Escherichia coli, this molecule had a pIC50 of 4.89.
Turning to `CCCCC[C@H]1CN[C@@H]1C(=O)N[C@@H]([C@H]1O[C@H](SC)[C@H](O)[C@@H](O)[C@H]1O)[C@H](C)Cl`, the MIC in the assay with Enterococcus faecium was 0.125 µg/mL (≈ 0.294 µM); against Staphylococcus aureus [1] it was greater than 8 µg/mL; in the assay on Bacteroides fragilis, 0.125 µg/mL (≈ 0.294 µM); with Streptococcus pneumoniae it was 0.03 µg/mL (≈ 0.0706 µM); against Enterococcus faecalis it was 0.25 µg/mL (≈ 0.588 µM); in the assay on Staphylococcus aureus [2], 0.06 µg/mL (≈ 0.141 µM). Besides, the ED50 in the assay with Staphylococcus aureus [3] worked out at 1.7 mg/kg; in the assay on Staphylococcus aureus [4], 28 mg/kg. The molecule also had a negative-log IC50 (pIC50) in the assay on Escherichia coli of 5.95.
With `CS[C@H]1O[C@H]([C@H](NC(=O)[C@H]2NC[C@@H]2CC2CC2)[C@H](C)Cl)[C@H](O)[C@H](O)[C@H]1O`, the MIC in the assay on Enterococcus faecium was 0.5 µg/mL (≈ 1.22 µM); with Staphylococcus aureus [1] it was greater than 8 µg/mL; in the assay with Bacteroides fragilis, 0.5 µg/mL (≈ 1.22 µM); in the assay on Streptococcus pneumoniae it was 0.125 µg/mL (≈ 0.306 µM); with Enterococcus faecalis, 1 µg/mL (≈ 2.45 µM); against Staphylococcus aureus [2], 0.5 µg/mL (≈ 1.22 µM). Also, the pIC50 in the assay with Escherichia coli is 4.96.
Turning to `CS[C@H]1O[C@H]([C@H](NC(=O)[C@H]2NC[C@@H]2CCCC2CCC2)[C@H](C)Cl)[C@H](O)[C@H](O)[C@H]1O`, the MIC is 0.06 µg/mL (≈ 0.133 µM) against Enterococcus faecium; greater than 4 µg/mL in the assay with Staphylococcus aureus [1]; 0.25 µg/mL (≈ 0.554 µM) with Bacteroides fragilis; 0.016 µg/mL (≈ 0.0355 µM) with Streptococcus pneumoniae; 0.06 µg/mL (≈ 0.133 µM) against Enterococcus faecalis; 0.03 µg/mL (≈ 0.0665 µM) with Staphylococcus aureus [2]. In addition, the ED50 in the assay on Staphylococcus aureus [3] is greater than 10 mg/kg. Further, in the assay on Escherichia coli, the negative logarithm of the IC50 (pIC50) was 5.61.
With `CCCC[C@H]1CN[C@@H]1C(=O)N[C@@H]([C@H]1O[C@H](SC)[C@H](O)[C@@H](O)[C@H]1O)[C@H](C)Cl`, the MIC is 0.125 µg/mL (≈ 0.304 µM) in the assay on Enterococcus faecium; greater than 8 µg/mL against Staphylococcus aureus [1]; 0.125 µg/mL (≈ 0.304 µM) against Bacteroides fragilis; 0.06 µg/mL (≈ 0.146 µM) in the assay on Streptococcus pneumoniae; 0.125 µg/mL (≈ 0.304 µM) against Enterococcus faecalis; 0.125 µg/mL (≈ 0.304 µM) with Staphylococcus aureus [2]. The ED50 in the assay with Staphylococcus aureus [3] was found to be 1.1 mg/kg; with Staphylococcus aureus [4] it was 10.8 mg/kg. Moreover, the pIC50 in the assay with Escherichia coli was 6.44.
For the molecule `CS[C@H]1O[C@H]([C@H](NC(=O)[C@H]2NC[C@@H]2CCC(C)C)[C@H](C)Cl)[C@H](O)[C@H](O)[C@H]1O`, the MIC is 0.5 µg/mL (≈ 1.18 µM) against Enterococcus faecium; greater than 8 µg/mL against Staphylococcus aureus [1]; 0.5 µg/mL (≈ 1.18 µM) in the assay on Bacteroides fragilis; 0.125 µg/mL (≈ 0.294 µM) against Streptococcus pneumoniae; 0.5 µg/mL (≈ 1.18 µM) against Enterococcus faecalis; 0.5 µg/mL (≈ 1.18 µM) against Staphylococcus aureus [2]. The molecule also gave a pIC50 with Escherichia coli of 4.81.
For `CCC[C@@H]1C[C@@H](C(=O)N[C@@H]([C@H]2O[C@H](SC)[C@H](O)[C@@H](O)[C@H]2O)[C@H](C)Cl)N(C)C1` [CLINDAMYCIN], the MIC in the assay on Enterococcus faecium was 0.125 µg/mL (≈ 0.294 µM); in the assay with Staphylococcus aureus [1], greater than 8 µg/mL; against Streptococcus pneumoniae it was 0.06 µg/mL (≈ 0.141 µM); with Enterococcus faecalis it was 0.25 µg/mL (≈ 0.588 µM); against Staphylococcus aureus [2], 0.125 µg/mL (≈ 0.294 µM). For the same molecule, the ED50 in the assay on Staphylococcus aureus [3] was found to be 2.8 mg/kg; in the assay with Staphylococcus aureus [4], 19.9 mg/kg.
